6 compounds from US7091024B2, “Enzyme PDE XVI” (Pfizer Inc., priority 1999, dated 2006) can be followed below.

For experiment [1], the target named is T1, PDE_XIV (Homo sapiens, UniProt Q9NP56).
T1 construct: made in house; host or cells: Sf9 insect cells (baculovirus, pFASTBAC-FLAG)
The experiment in a line: cAMP Scintillation Proximity Assays on purified expressed PDE_XIV (substrate hydrolysis). In kind it is biochemical. (In general: In a scintillation proximity assay essentially only radioactivity close to the scintillant gives light.)

For experiment [2], the target named is T1, PDE_XIV. The experiment in a line: Phosphodiesterase inhibition studies on purified expressed PDE_XIV (cAMP SPA). In kind it is biochemical. As to conditions: for IC50: N = 2, read-out: IC50 FOR PDEXIV (μM) (N = 2). The method, then: This allows the specific retention on the column of the recombinant material (since this is fused to the FLAG epitope) whilst the endogenous insect proteins are washed off in the eluate. The recombinant material is then washed off under conditions of low pH. […] The purity of the material is assessed by coomassie staining after sodium dodecyl sulphate-polyacrylamide gel electrophoresis (SDS-PAGE) or through western blotting onto a nitro-cellulose membrane of an unstained SDS-PAGE (containing recombinant PDE) and analysis with the IgG1 monoclonal anti-FLAG epitope antibody. The PDE-FLAG fusion protein is detected due to the interaction between the anti-FLAG antibody and the FLAG epitope which is fused to the PDE protein. The phosphodiesterase activity of the purified PDE-FLAG fusion protein was assayed using a commercially available SPA (scintillation proximity assay) kit (Amersham-Amersham place, Little Chalfont, Bucks, HP7 9NA UK) for either cAMP and/or cGMP hydrolytic activity.

“And” between values parts separate entries of the source, which are not always exact repeats. Identical values can stand only once.

T1 sequence (Q9NP56 whole entry): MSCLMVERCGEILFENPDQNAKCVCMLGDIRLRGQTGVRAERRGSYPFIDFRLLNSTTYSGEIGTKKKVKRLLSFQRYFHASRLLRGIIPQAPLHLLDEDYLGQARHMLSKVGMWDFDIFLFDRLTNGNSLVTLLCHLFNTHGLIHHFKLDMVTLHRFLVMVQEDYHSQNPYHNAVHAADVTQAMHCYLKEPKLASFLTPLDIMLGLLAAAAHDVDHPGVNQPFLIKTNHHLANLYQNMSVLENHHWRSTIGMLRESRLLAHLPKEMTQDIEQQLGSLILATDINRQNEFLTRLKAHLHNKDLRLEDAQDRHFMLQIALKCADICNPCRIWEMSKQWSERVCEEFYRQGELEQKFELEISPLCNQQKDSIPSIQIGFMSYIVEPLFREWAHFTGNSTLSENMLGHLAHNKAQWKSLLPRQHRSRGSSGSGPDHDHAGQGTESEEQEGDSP

Take `Nc1nc2c(ncn2[C@@H]2O[C@@H]3COP(=O)(O)O[C@H]3[C@H]2O)c(=O)[nH]1` [cGMP]: the “activity of PDE_XIV against the cyclic nucleotide” value at PDE_XIV [1] is “no activity”.
The term IC50 denotes the midpoint of a concentration-inhibition curve. As to `COc1ccc([C@]2(C#N)CC[C@@H](C(=O)O)CC2)cc1OC1CCCC1` [Ariflo], on PDE_XIV [2], the “sensitivity of PDE_XIV to the PDE inhibitor” value is on record as “not to be sensitive” and the IC50 is more than 30 µM.
On to `COc1ccc(C2CNC(=O)C2)cc1OC1CCCC1` (stereo not drawn) [Rolipram], for which, at PDE_XIV [2], the “sensitivity of PDE_XIV to the PDE inhibitor” value was “not to be sensitive” and the IC50 was more than 30 µM.
Regarding `OCCN(CCO)c1nc(N2CCCCC2)c2nc(N(CCO)CCO)nc(N3CCCCC3)c2n1` [Dipyridamole], the IC50 on PDE_XIV [2] was 10.7 µM.
Take `Cc1[nH]c(=O)c(C#N)cc1-c1ccncc1` [Milrinone]: at PDE_XIV [2], the “sensitivity of PDE_XIV to the PDE inhibitor” value is “not to be sensitive” and the IC50 was more than 30 µM.
Regarding `CC(C)Cn1c(=O)n(C)c(=O)c2[nH]cnc21` [IBMX], the IC50 at PDE_XIV [2] was 9.32 µM and 9.72 µM.
